Measurements reported in patent US4154730A, “Novel 17-spirosultines” (Roussel Uclaf, priority 1976, dated 1979).

Columns and labels:
[1] = target: T1, progesterone receptor (hormonal receptor of rabbit uterus cytosol) (Oryctolagus cuniculus, UniProt P06186); test: Progestomimetic activity by the method of hormonal receptors: displacement of tritiated product R in uterus cytosol; format: binding; settings: tritiated 17,21-dimethyl-19-nor-Δ4,9-pregnadiene-3,20-dione, 0° C., 2 hours, progesterone = 100
T1 construct: The uterus was removed and homogenized in a buffered mixture; from tissue; host or cells: uterus cytosol (105,000 g supernatant) of impuberic rabbits primed with estradiol
T1 sequence (P06186 1-930): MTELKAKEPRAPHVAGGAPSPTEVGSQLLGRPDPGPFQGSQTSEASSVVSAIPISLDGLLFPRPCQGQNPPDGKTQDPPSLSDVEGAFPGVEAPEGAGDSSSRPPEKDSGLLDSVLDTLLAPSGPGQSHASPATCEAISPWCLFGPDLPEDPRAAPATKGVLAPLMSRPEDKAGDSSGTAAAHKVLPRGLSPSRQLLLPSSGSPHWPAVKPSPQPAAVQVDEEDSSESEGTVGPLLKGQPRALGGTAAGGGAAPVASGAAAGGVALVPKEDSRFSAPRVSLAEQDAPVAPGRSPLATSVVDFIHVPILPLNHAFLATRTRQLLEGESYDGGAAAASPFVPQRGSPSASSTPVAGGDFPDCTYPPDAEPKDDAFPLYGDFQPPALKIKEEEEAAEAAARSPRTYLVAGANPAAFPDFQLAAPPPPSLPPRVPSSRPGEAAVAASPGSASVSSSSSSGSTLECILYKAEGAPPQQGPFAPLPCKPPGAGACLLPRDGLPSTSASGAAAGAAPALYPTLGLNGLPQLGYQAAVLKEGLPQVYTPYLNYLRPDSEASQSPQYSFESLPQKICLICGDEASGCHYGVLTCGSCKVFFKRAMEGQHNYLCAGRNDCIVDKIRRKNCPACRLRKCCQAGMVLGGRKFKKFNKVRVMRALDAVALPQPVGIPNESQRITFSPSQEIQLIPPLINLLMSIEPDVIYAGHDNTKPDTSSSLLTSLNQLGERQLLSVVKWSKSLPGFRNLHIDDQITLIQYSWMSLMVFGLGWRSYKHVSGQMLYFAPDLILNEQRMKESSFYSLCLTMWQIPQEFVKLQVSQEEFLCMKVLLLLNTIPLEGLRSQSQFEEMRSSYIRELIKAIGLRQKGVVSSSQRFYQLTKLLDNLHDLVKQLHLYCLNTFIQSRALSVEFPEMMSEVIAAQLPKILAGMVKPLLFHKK
Experimental: Ster. Biochem., Vol. 6 (1975), p. 615-622 and Physiology and Genetics of Reproduction, part A (1975), p. 143-160]. Impuberic rabbits received percutaneously 25 γ of estradiol and 5 days later, the animals were killed. The uterus was removed and homogenized in a buffered mixture of 10 mM of tromethamine, 0.25 M of saccharose and sufficient hydrochloric acid for a pH of 7.4. The homogenate was centrifuged at 105,000 g for one hour and the liquid surnageant or cytosol was adjusted to obtain a dilution of 1:50 (weight of uterus to volume). […] B/T max. is the percentage of tritiated product R bound when no product was added and B/T min. is the percentage of tritiated product R bound when the maximum quantity of cold product R is added. The intersections of line I50 and the curves permit the determination of the CP and CX values. CP is the concentration of cold progesterone which inhibits by 50% the fixation of tritiated product R and CX is the concentration of test product which inhibits by 50% the fixation of tritiated product R. The relative affinity of the test product or RLA is determined by the formula [formula] and the results are reported in Table I.

[2] = system: activity of monoacetate of aldosterone (urinary sodium/potassium ratio); test: Antialdosteronic activity in surrenalectomized rats; format: in vivo, rat (Sprague Dawley); settings: male surrenalectomized rats, test product 5 mg/kg subcutaneously, urine collected for 4 hours
Experimental: Male rats of the Sprague Dawley strain weighing about 180 g were subjected to surrenalectomy and at this moment, the rats received a drink of physiological serum. After about 2 days, the animals were fasted for 16 hours and then received a drink of an aqueous 5% glucose solution. The test products were administered subcutaneously at about 16 hours in the form of a solution or suspension in a 0.25% aqueous carboxymethyl cellulose solution containing Tween 80. One hour later, the animals received on the one hand intraperitoneally a hydrosaline surcharge at a dose of 5 ml/per rat of a 0.9% physiological serum and on the other hand subcutaneously 1 μg/kg of the monoacetate of aldosterone in a 2.5% alcoholic solution. The rats were placed in diuresis cages without food or drink for 4 hours and after this time, a forced urination was effected by pressure on the bladder. The volume of the obtained urine was adjusted to 50 ml and the amounts of sodium and potassium present was determined by an autoanalyzer. The results are expressed as a percentage of inhibition of the activity of 1 μg/kg of subcutaneously injected monoacetate of aldosterone by the ratio of sodium concentration to potassium concentration of the surrenalectomized rats.

Structure (SMILES)	RLA (relative affinity of the test product, from CP and CX) [1]	percentage of inhibition of the activity of 1 μg/kg of subcutaneously injected monoacetate of aldosterone (sodium/potassium ratio) [2] [%]
C[C@]12C=CC3=C4CCC(=O)C=C4CC[C@H]3[C@@H]1CC[C@@]21CCS(=O)O1 (stereo partly drawn) [product B, B isomer of (17R) 2'-oxidospiro-[Δ^4,9,11-estratriene-17,5'-(1',2')-oxathiolane]-3-one]	400	–
C[C@]12CCC3=C4CCC(=O)C=C4CC[C@H]3[C@@H]1CC[C@@]21CCS(=O)O1 (stereo partly drawn) [product A, B isomer of (17R) 2'-oxidospiro-[Δ^4,9-estradiene-17,5'-(1',2')-oxathiolane]-3-one]	280	88
